Results as given in US11453690B2, “Receptor inhibitor, pharmaceutical composition comprising same, and use thereof” (BEIJING TIDE PHARMACEUTICAL CO., LTD., priority 2018, dated 2022).

Each compound was assayed against AT2 Receptor (AT2R) (Homo sapiens (Human), UniProt P50052) (assay: Measurement of inhibitory activity on AT2 receptor (Tag-lite HTRF, Tb-labeled AT2R cells, angiotensin receptor red agonist)). Conditions: 1 h room temperature.
Chain of AT2 Receptor (AT2R) (P50052 whole entry): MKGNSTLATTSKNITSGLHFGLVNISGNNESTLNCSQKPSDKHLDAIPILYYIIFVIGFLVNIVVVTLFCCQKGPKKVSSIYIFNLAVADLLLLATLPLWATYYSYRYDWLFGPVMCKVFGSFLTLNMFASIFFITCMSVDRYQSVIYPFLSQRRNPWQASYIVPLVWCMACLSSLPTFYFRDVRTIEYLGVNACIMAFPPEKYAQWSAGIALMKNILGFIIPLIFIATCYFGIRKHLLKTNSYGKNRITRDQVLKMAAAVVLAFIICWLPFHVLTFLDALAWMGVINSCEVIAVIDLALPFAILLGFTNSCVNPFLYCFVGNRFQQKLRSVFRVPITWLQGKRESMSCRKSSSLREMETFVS
Assay type: binding
With CC(NC(=O)N1[C@H]2CC[C@@H]1[C@@H](C(=O)O)N(C(=O)N(c1ccccc1)c1ccccc1)C2)c1ccccc1 (stereo partly drawn) [Compound C117, (1R,2S,5S)-3-(diphenylcarbamoyl)-8-((1-phenylethyl)carbamoyl)-3,8-diazabicyclo [3.2.1]octane-2-carboxylic acid] the IC50 was 61.3 nM. CC(c1ccsc1)N(C)C(=O)N1[C@H]2CC[C@@H]1[C@@H](C(=O)O)N(C(=O)N(c1ccccc1)c1ccccc1)C2 (stereo partly drawn) [Compound C229, (1R,2S,5S)-3-(diphenylcarbamoyl)-8-(methyl (1-(thiophene-3-yl)ethyl)carbamoyl)-3,8-diazabicyclo[3.2.1] octane-2-carboxylic acid] was tested, and the IC50 was 10.1 nM. O=C(O)[C@@H]1[C@@H]2CC[C@@H](CC2OCc2cccc(Cl)c2)N1C(=O)C(c1ccccc1)c1ccccc1 (stereo partly drawn) [Compound C291, (1S,3S,4S)-5-((3-chloro-benzyl)oxy)-2-(2,2-diphenylacetyl)-2-azabicyclo [2.2.2]octane-3-carboxylic acid] showed an IC50 of 765 nM. Compound Cc1ccc([C@H]2CCCN2C(=O)N2[C@H]3CC[C@@H]2[C@@H](C(=O)O)N(C(=O)N(c2ccccc2)c2ccccc2)C3)cc1 [Compound C143, (1R,2S,5S)-3-(diphenylcarbamoyl)-8-((R)-2-(p-tolyl)pyrrolidine-1-carbonyl)-3,8-diazabicyclo [3.2.1]octane-2-carboxylic acid] has an IC50 of 9.97 nM. For CN(Cc1ccc(Br)cc1)C(=O)N1[C@H]2CC[C@@H]1[C@@H](C(=O)O)N(C(=O)N(c1ccccc1)c1ccccc1)C2 [Compound C165, (1R,2S,5S)-8-((4-bromobenzyl) (methyl)carbamoyl)-3-(diphenylcarbamoyl)-3,8-diazabicyclo [3.2.1]octane-2-carboxylic acid], the IC50 was 14 nM. Work on CCN(Cc1ccc(Cl)s1)C(=O)N1[C@H]2CC[C@@H]1[C@@H](C(=O)O)N(C(=O)N(c1ccccc1)c1ccccc1)C2 [Compound C281, (1R,2S,5S)-8-(((5-chlorothiophene-2-yl)methyl) (ethyl)carbamoyl)-3-(diphenylcarbamoyl)-3,8-diazabicyclo[3.2.1] octane-2-carboxylic acid] yielded an IC50 of 20.3 nM. In the case of CN(C)[C@@H](Cc1ccccc1)C(=O)N1[C@H]2CC[C@@H]1[C@@H](C(=O)O)N(C(=O)N(c1ccccc1)c1ccccc1)C2 [Compound C269, (1R,2S,5S)-8-((S)-2-(dimethylamino)-3-phenylpropionyl)-3-(diphenylcarbamoyl)-3,8-diazabicyclo [3.2.1]octane-2-carboxylic acid], the IC50 is reported as 68.2 nM. With CCN(Cc1cscn1)C(=O)N1[C@H]2CC[C@@H]1[C@@H](C(=O)O)N(C(=O)N(c1ccccc1)c1ccccc1)C2 [Compound C209, (1R,2S,5S)-3-(diphenylcarbamoyl)-8-(ethyl(thiazole-4-ylmethyl)carbamoyl)-3,8-diazabicyclo [3.2.1]octane-2-carboxylic acid] the IC50 was 81.4 nM. CCN(Cc1ccsc1)C(=O)N1[C@H]2CC[C@@H]1[C@@H](C(=O)O)N(C(=O)C(c1ccccc1)c1ccccc1)C2 [Compound C188, (1R,2S,5S)-3-(2,2-diphenylacetyl)-8-(ethyl(thiophene-3-ylmethyl)carbamoyl)-3,8-diazabicyclo [3.2.1]octane-2-carboxylic acid] showed an IC50 of 7.11 nM. O=C(O)[C@@H]1[C@H]2CC[C@@H](CN1C(=O)N(c1ccccc1)c1ccccc1)N2C(=O)N(Cc1ccc(Cl)cc1)CC1CC1 [Compound C218, (1R,2S,5S)-8-((4-chlorobenzyl) (cyclopropylmethyl)carbamoyl)-3-(diphenylcarbamoyl)-3,8-diazabicyclo [3.2.1]octane-2-carboxylic acid] showed an IC50 of 11.5 nM. In the case of CC(C)N(Cc1ccccc1)C(=O)N1[C@H]2CC[C@@H]1[C@@H](C(=O)O)N(C(=O)N(c1ccccc1)c1ccccc1)C2 [Compound C152, (1R,2S,5S)-8-(benzyl (isopropyl)carbamoyl)-3-(diphenylcarbamoyl)-3,8-diazabicyclo [3.2.1]octane-2-carboxylic acid], the IC50 is reported as 47.4 nM. For CCN(Cc1ccccc1Cl)C(=O)N1[C@H]2CC[C@@H]1[C@@H](C(=O)O)N(C(=O)N(c1ccccc1)c1ccccc1)C2 [Compound C212, (1R,2S,SS)-8-((2-chlorobenzyl) (ethyl)carbamoyl)-3-(diphenylcarbamoyl)-3,8-diazabicyclo [3.2.1]octane-2-carboxylic acid], the IC50 was 9.04 nM. Compound CN(Cc1cccc(Cl)c1)C(=O)N1[C@H]2CC[C@@H]1[C@@H](C(=O)O)N(C(=O)N(c1ccccc1)c1ccccc1)C2 [Compound C151, (1R,2S,5S)-8-((3-chlorobenzyl) (methyl)carbamoyl)-3-(diphenylcarbamoyl)-3,8-diazabicyclo [3.2.1]octane-2-carboxylic acid] has an IC50 of 74.3 nM. Work on C[C@@H](c1ccccc1)N(C)C(=O)N1[C@H]2CC[C@@H]1[C@@H](C(=O)O)N(C(=O)N(c1ccccc1)c1ccccc1)C2 [Compound C227, (1R,2S,5S)-3-(diphenylcarbamoyl)-8-(methyl ((S)-1-phenylethyl)carbamoyl)-3,8-diazabicyclo [3.2.1]octane-2-carboxylic acid] yielded an IC50 of 18.3 nM. Work on O=C(O)[C@@H]1[C@@H]2CC[C@@H](CC2OCc2ccccc2Cl)N1C(=O)C(c1ccccc1)c1ccccc1 (stereo partly drawn) [Compound C294, (1S,3S,4S)-5-((2-chloro-benzyl)oxy)-2-(2,2-diphenylacetyl)-2-azabicyclo [2.2.2]octane-3-carboxylic acid] yielded an IC50 of 666 nM. CN(Cc1cccnc1)C(=O)N1[C@H]2CC[C@@H]1[C@@H](C(=O)O)N(C(=O)N(c1ccccc1)c1ccccc1)C2 [Compound C124, (1R,2S,5S)-3-(diphenylcarbamoyl)-8-(methyl(pyridine-3-ylmethyl)carbamoyl)-3,8-diazabicyclo [3.2.1]octane-2-carboxylic acid] showed an IC50 of 37.8 nM. Work on CC(c1ccccc1)N(C)C(=O)N1[C@H]2CC[C@@H]1[C@@H](C(=O)O)N(C(=O)N(c1ccccc1)c1ccccc1)C2 (stereo partly drawn) [Compound C225, (1R,2S,5S)-3-(diphenylcarbamoyl)-8-(methyl (1-phenylethyl)carbamoyl)-3,8-diazabicyclo [3.2.1]octane-2-carboxylic acid] yielded an IC50 of 11.7 nM. In the case of CN(Cc1ccc2cc[nH]c2c1)C(=O)N1[C@H]2CC[C@@H]1[C@@H](C(=O)O)N(C(=O)N(c1ccccc1)c1ccccc1)C2 [Compound C249, (1R,2S,5S)-8-(((1H-indole-6-yl)methyl)(methyl)carbamoyl)-3-(diphenylcarbamoyl)-3,8-diazabicyclo [3.2.1]octane-2-carboxylic acid], the IC50 is reported as 10.9 nM. With O=C(O)[C@@H]1[C@H]2CC[C@@H](CN1C(=O)N(c1ccccc1)c1ccccc1)N2C(=O)N1CCCCC1c1ccccc1 (stereo partly drawn) [Compound C146, (1R,2S,5S)-3-(diphenylcarbamoyl)-8-(2-phenylpiperidine-1-carbonyl)-3,8-diazabicyclo [3.2.1]octane-2-carboxylic acid] the IC50 was 14 nM. C=CCc1ccc(CN(C)C(=O)N2[C@H]3CC[C@@H]2[C@@H](C(=O)O)N(C(=O)N(c2ccccc2)c2ccccc2)C3)cc1 [Compound C235, (1R,2S,5S)-8-((4-allylbenzyl)(methyl)carbamoyl)-3-(diphenylcarbamoyl)-3,8-diazabicyclo[3.2.1]octane-2-carboxylic acid] showed an IC50 of 6.78 nM. CN(Cc1ccc(Cl)nc1)C(=O)N1[C@H]2CC[C@@H]1[C@@H](C(=O)O)N(C(=O)N(c1ccccc1)c1ccccc1)C2 [Compound C255] gave an IC50 of 13.8 nM. CN(Cc1ccc(C(F)(F)F)cc1)C(=O)N1[C@H]2CC[C@@H]1[C@@H](C(=O)O)N(C(=O)N(c1ccccc1)c1ccccc1)C2 [Compound C169] gave an IC50 of 7.26 nM.
